{"source": "paper PMC3510080", "about": "“Identification of Compounds with Anti-Proliferative Activity against Trypanosoma brucei brucei Strain 427 by a Whole Cell Viability Based HTS Campaign” (PLoS Neglected Tropical Diseases, 2012)", "key": {"[1]": {"system": "T.b. brucei bloodstream form lister 427", "test": "T.b. brucei Alamar Blue viability estimation assay (384-well HTS, retest and rescreen)", "format": "cell-based, Trypanosoma brucei brucei", "details": "for IC50: Trypanosoma brucei", "experimental": "(§1) T.b. brucei lister 427 cells were maintained in log phase growth in 25 cm^2 tissue culture flasks (Corning, NY, USA) by sub-culturing at either 24 or 48 hour intervals. Cells were grown in HMI-9 medium, supplemented with 10% fetal calf serum (FCS) and 100 IU/ml penicillin/streptomycin (Invitrogen, Carlsbad, California, USA) with incubation at 5% CO2 at 37°C in humidified conditions. HEK293 cells were maintained in high glucose DMEM with L-glutamine, supplemented with 1× non-essential amino acids (NEAA; Invitrogen, USA) and 1 mM sodium pyruvate. Growth conditions were in 5% CO2 at 37°C, under humidified conditions.\nAll reagent and cell additions were made with a Multidrop liquid handler (Thermo Scientific, Newington, NH, USA) under sterile conditions. Fifty-five microliters of 2000 cells/mL of T.b. brucei in HMI-9 medium were added to a black, clear-bottomed 384-well lidded plate (BD Biosciences, Franklin Lanes, NJ, USA). Cells were incubated for 24 hours at 37°C in an atmosphere of 5% CO2 before addition of 5 µl of compounds/DMSO for control wells. Compounds suspended in 100% DMSO or 100% DMSO as controls were pre-diluted 1∶21 in high glucose DMEM without FCS by using a Minitrack robotic liquid handler (PerkinElmer, Waltham, MA, USA). Five microliters of diluted sample was added to the plate to give a final DMSO concentration of 0.417% in the assay. Cells were incubated for an additional 48 hours at 37°C. Ten microliters of 70% Alamar Blue (Biosource, Bethesda, MD, USA) was added to each well (diluted in HMI-9 medium supplemented with 10% FCS) to a final concentration of 10% in the assay. The plate was incubated for two hours under the same conditions, then incubated for 22 hours in the dark at room temperature. Wells were read at 535 nm (excitation) and 590 nm (emission) wavelengths on a Victor II Wallac plate reader (PerkinElmer, USA). Specific dilutions are explained further in the primary and retest assay methodology. Reference drugs used in the assay were pentamidine (Sigma-Aldrich, St Louis, MO, USA), diminazene aceturate (Sigma-Aldrich, USA) and puromycin (Calbiochem, San Deigo, CA, USA). Pentamidine is used to treat patients with HAT and diminazene is a veterinary drug used against T.b. brucei to combat infections in cattle.\nPrimary screening of the library, consisting of 87,296 compounds in two hundred and forty eight 384-well plates, was undertaken in single point against T.b. brucei. Stock solutions consisted of test compound at a concentration of 5 mM in 100% DMSO. One µl of each compound stock solution was diluted by the addition of 40 µl of dilution medium (high glucose DMEM without FCS) by a multidrop liquid handler (Thermo Scientific, USA). A 5 µl sample of this diluted solution was then added to the trypanosome assay plate. The final concentration of test compound in the assay was […] and that of DMSO was 0.42% v/v. Compounds were screened over a total of 11 days, at an average of 80 plates per day, taking into consideration that the assay incubation was 3 days total. Test compounds were added to plates in batches of 20 at two hour intervals, to maintain the timing of additions and reads.\nCompound activity was calculated as the percentage inhibition in relation to positive and negative controls. […] These in-plate negative controls were used in an effort to normalise compound activity in relation to any plate to plate variation in the assay signal. A whole 384-well control plate was included in each day's screening, one per 20 compound plates containing half a plate of 2 µM pentamidine for the positive assay control, and half a plate of 0.42% v/v DMSO as a negative control. The positive assay control was used to calculate compound activity for batches of 20 compound plates. As well providing the positive control data, these whole plate controls were used for the calculation of the Z' to measure the reproducibility of the assay."}, "mammalian cell lines": {"system": "mammalian cell lines", "details": "cited from earlier work"}, "HEK293 cells": {"system": "HEK293 cells", "test": "HEK293 Alamar Blue viability estimation assay", "format": "cell-based, human", "details": "pentamidine 1 µM, diminazene 40 µM", "experimental": "as §1\nCells at 80% confluence were harvested and diluted in growth medium (high glucose DMEM supplemented with 10% FCS) to 7.27×10^4 cells/ml. Under sterile conditions, 55 µl of diluted cells per well were added to a black, clear bottomed 384-well lidded plate (BD Biosciences, Bedford, MA, USA) with a Multidrop liquid handler (Thermo Scientific, Barrington, IL, USA). Incubation times, compound additions and plate read were as per the trypanosome viability assay, with the exception that Alamar Blue was diluted in HEK293 growth media before addition, and incubation of Alamar Blue at 37°C, in 5% CO2, was for 4 hours, followed by incubation at room temperature for 20 hours. The activity of compounds against HEK293 cells was used to calculate the SI of mammalian to T.b. brucei cells. The control compound for HEK293 cells was puromycin (Calbiochem, USA).\nCompounds identified from primary screening were retested against both T.b. brucei and HEK293 cells in duplicate and at varying concentrations to obtain a dose-response curve. Thus, a 5 µl sample of fresh compound stock solution (5 mM in DMSO) was cherry picked into 384-well plates and diluted 1∶10 in dilution medium (high glucose DMEM without FCS). Serial dilutions of these samples were then prepared in the same media by a Minitrak robotic liquid handler (Perkin Elmer, USA). […] A screening dose of 10.4 µM was included in the dilution series to enable reconfirmation of primary screening T.b. brucei activity.\nThe DMSO working concentration in the serial dilutions was maintained at 5%, giving a final assay concentration of 0.42% DMSO, except for the 41.7 µM test compound solution, where as previously stated the corresponding DMSO concentration was 0.83% v/v. […] Therefore the 41.7 µM test compound sample with 0.83% v/v DMSO was not used in the T.b. brucei assay and thus the top test compound concentration in this assay was 20.8 µM.\nCompound activity in the retest campaign was calculated as percentage inhibition in relation to positive and negative controls, in the same manner as the primary screening campaign. The positive controls, pentamidine (2 µM final concentration) for T.b. brucei and puromycin (8 µM final concentration) for HEK293, were both screened in whole 384-well control plates. Whole 384-well plate controls were included after every batch of 20 compound plates, and were comprised of half a plate of negative control and half a plate of positive control. The negative control was the vehicle, […]. The negative control was also included in column 24 of each compound assay plate to determine signal variation from plate to plate and to calculate compound activity. The exception was the 41.7 µM compound dose used in the HEK293 assay. In these plates column 24 contained 0.83% DMSO as a negative control. A separate 384-well plate containing a 13 point dose-response of the reference compounds puromycin, pentamidine and diminazene, in triplicate, was also included per 20 compound test plate batch to estimate assay sensitivity.\nThese compounds were retested as in dose for N of three replicates, as described above for both T.b. brucei and HEK293."}}, "note": "Read-outs that look alike come from different tables or passages of the source."}
{"smiles": "N=C(N)c1ccc(/N=N/Nc2ccc(C(=N)N)cc2)cc1", "note": "[Diminazene, diminazene aceturate, reference compound]", "values": [{"measurement": "Selectivity Index T.B", "setting": "[1]; HEK293 IC50 / T.b. brucei IC50, > if less than 50% activity at 75.8 µM in HEK293", "value": ">330"}, {"measurement": "IC50", "setting": "[1]; 13 control plates, triplicate dose-response, read-out: IC50 of reference compounds, primary screening campaign", "value": 65.4, "unit": "nM"}, {"measurement": "IC50", "setting": "[1]; during rescreening of resynthesized compounds, read-out: Reference Compound Activity T.B (IC50)", "value": "121 ± 9.04", "unit": "nM"}, {"measurement": "IC50", "setting": "[1]; reference compounds, read-out: IC50 against T.b. brucei, retest screening campaign", "value": "29.5 ± 5.8", "unit": "nM"}, {"measurement": "reported SI", "setting": "mammalian cell lines", "value": 692}, {"measurement": "activity in the HEK293 assay at the doses screened, rescreening", "setting": "HEK293 cells", "value": "neither pentamidine nor diminazene displayed activity"}, {"measurement": "activity in the HEK293 assay at the doses screened, retest campaign", "setting": "HEK293 cells", "value": "Neither pentamidine nor diminazene displayed activity"}]}
